Each block holds one molecule with its values, some of them ahead of it.
Legend:
[1] = tested on: dsBcl3 WT (90-bp dsBcl3-G4) (DNA, G4) CAGGAAACCCCTGGGGCGTACGGGTGGCCCCGGGGGGGCCGGGGGCGGGGAGGCGGGCGGCCGGCACCGCCCCGGCCGACAAAAGTCCCT/AGGGACTTTTGTCGGCCGGGGCGGTGCCGGCCGCCCGCCTCCCCGCCCCCGGCCCCCCCGGGGCCACCCGTACGCCCCAGGGGTTTCCTG; test: NMM fluorescence turn-on (610 nm); conditions: 1 mM K+ (KCl); 10% PEG8000; also 100 mM KCl without PEG; 25 °C; 1 μM NMM, 2 μM DNA
[2] = tested on: dsBcl3 G6/8A (DNA, duplex) CAGGAAACCCCTGGGGCGTACGGGTGGCCCCGGGGGGGCCGGAGGCGGAGAGGCGGGCGGCCGGCACCGCCCCGGCCGACAAAAGTCCCT/AGGGACTTTTGTCGGCCGGGGCGGTGCCGGCCGCCCGCCTCTCCGCCTCCGGCCCCCCCGGGGCCACCCGTACGCCCCAGGGGTTTCCTG; test: NMM fluorescence turn-on (610 nm); conditions: 1 mM K+ (KCl); 10% PEG8000; also 100 mM KCl without PEG; 25 °C; 1 μM NMM, 2 μM DNA; no peak
[3] = tested on: dsBcl3 GI/IVA (DNA, duplex) CAGGAAACCCCTGGGGCGTACGGGTGGCCCCGGAAAGGCCGGGGGCGGGGAGGCAAACGGCCGGCACCGCCCCGGCCGACAAAAGTCCCT/AGGGACTTTTGTCGGCCGGGGCGGTGCCGGCCGTTTGCCTCCCCGCCCCCGGCCTTTCCGGGGCCACCCGTACGCCCCAGGGGTTTCCTG; test: NMM fluorescence turn-on (610 nm); conditions: 1 mM K+ (KCl); 10% PEG8000; also 100 mM KCl without PEG; 25 °C; 1 μM NMM, 2 μM DNA; no peak
[4] = tested on: Bcl3 G6A (DNA, G4) CGGGGGGGCCGGAGGCGGGGAGGCGGGCGG; test: CD melting at 284 nm; conditions: 100 mM K+ (KCl); 10 mM Tris-HCl pH 7.5; 20 μM ligand, ligand:G4 2:1; stabilised
[5] = tested on: Bcl3 G6/8A (DNA, G4) CGGGGGGGCCGGAGGCGGAGAGGCGGGCGG; test: CD melting at 284 nm; conditions: 100 mM K+ (KCl); 10 mM Tris-HCl pH 7.5; 20 μM ligand, ligand:G4 2:1; stabilised
[6] = tested on: Bcl3 GI/IVA (DNA, G4) CGGAAAGGCCGGGGGCGGGGAGGCAAACGG; test: CD melting at 284 nm; conditions: 100 mM K+ (KCl); 10 mM Tris-HCl pH 7.5; 20 μM ligand, ligand:G4 2:1; stabilised
[7] = tested on: Bcl3 promoter WT (30-nt, G-rich positive strand) (DNA, G4) CGGGGGGGCCGGGGGCGGGGAGGCGGGCGG; test: ThT fluorescence turn-on (490 nm); conditions: 100 mM K+ (KCl); 10 mM Tris-HCl pH 7.5, 25 °C; 0.5 μM ThT, 1 μM DNA
[8] = tested on: Bcl3 G6A (DNA, G4) CGGGGGGGCCGGAGGCGGGGAGGCGGGCGG; test: CD melting at 264 nm; conditions: 100 mM K+ (KCl); 10 mM Tris-HCl pH 7.5; 20 μM ligand, ligand:G4 2:1; stabilised
[9] = tested on: Bcl3 G6/8A (DNA, G4) CGGGGGGGCCGGAGGCGGAGAGGCGGGCGG; test: CD melting at 264 nm; conditions: 100 mM K+ (KCl); 10 mM Tris-HCl pH 7.5; 20 μM ligand, ligand:G4 2:1; stabilised
[10] = tested on: Bcl3 GI/IVA (DNA, G4) CGGAAAGGCCGGGGGCGGGGAGGCAAACGG; test: CD melting at 264 nm; conditions: 100 mM K+ (KCl); 10 mM Tris-HCl pH 7.5; 20 μM ligand, ligand:G4 2:1; stabilised
SP1 [11] = target: T1, SP1 (UniProt P08047 1-785); test: EMSA; annealed in 100 mM KCl; Hill 4.42; EMSA: 10 mM HEPES-NaOH pH 7.3, 50 mM KCl, 5 mM MgCl2, 0.5 mM DTT, 5% glycerol, 0.5 mg/mL BSA, 1 h, gel at 4 C; BLI: PBS, room temperature; oligos annealed in 10 mM Tris-HCl pH 7.5 +/- 100 mM KCl; conditions: protein: commercial; label: 5' biotin (BLI); G4, parallel, intra- and intermolecular
T1 sequence (P08047 whole entry): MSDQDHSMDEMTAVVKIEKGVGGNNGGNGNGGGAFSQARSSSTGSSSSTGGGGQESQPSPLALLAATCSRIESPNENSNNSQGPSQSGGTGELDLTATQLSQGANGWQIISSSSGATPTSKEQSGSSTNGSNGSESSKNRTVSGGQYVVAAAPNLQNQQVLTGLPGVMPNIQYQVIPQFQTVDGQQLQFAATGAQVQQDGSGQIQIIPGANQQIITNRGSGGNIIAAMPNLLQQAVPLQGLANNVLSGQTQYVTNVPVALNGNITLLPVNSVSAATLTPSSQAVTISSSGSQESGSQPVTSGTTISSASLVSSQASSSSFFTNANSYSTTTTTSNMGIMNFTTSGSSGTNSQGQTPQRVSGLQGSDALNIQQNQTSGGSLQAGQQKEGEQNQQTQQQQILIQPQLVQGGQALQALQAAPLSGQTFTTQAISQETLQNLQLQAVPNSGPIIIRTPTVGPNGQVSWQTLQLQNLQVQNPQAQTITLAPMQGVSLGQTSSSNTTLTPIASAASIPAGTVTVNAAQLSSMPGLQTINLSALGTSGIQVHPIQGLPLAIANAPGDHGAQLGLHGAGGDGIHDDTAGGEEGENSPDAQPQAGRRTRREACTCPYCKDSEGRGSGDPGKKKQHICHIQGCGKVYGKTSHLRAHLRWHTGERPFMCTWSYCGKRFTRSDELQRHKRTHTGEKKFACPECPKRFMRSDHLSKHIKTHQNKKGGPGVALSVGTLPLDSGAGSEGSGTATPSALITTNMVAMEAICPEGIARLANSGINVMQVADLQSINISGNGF

SP1 [12] = target: T1, SP1; test: BLI; annealed in 100 mM KCl; local 1:1 fit at 457 nM SP1; not truly 1:1; EMSA: 10 mM HEPES-NaOH pH 7.3, 50 mM KCl, 5 mM MgCl2, 0.5 mM DTT, 5% glycerol, 0.5 mg/mL BSA, 1 h, gel at 4 C; BLI: PBS, room temperature; oligos annealed in 10 mM Tris-HCl pH 7.5 +/- 100 mM KCl; conditions: protein: commercial; label: 5' biotin (BLI); G4, parallel, intra- and intermolecular
SP1 [13] = target: T1, SP1; test: EMSA; annealed with KCl; Kd only in Fig S13B; EMSA: 10 mM HEPES-NaOH pH 7.3, 50 mM KCl, 5 mM MgCl2, 0.5 mM DTT, 5% glycerol, 0.5 mg/mL BSA, 1 h, gel at 4 C; BLI: PBS, room temperature; oligos annealed in 10 mM Tris-HCl pH 7.5 +/- 100 mM KCl; conditions: protein: commercial; G4
SP1 [14] = target: T1, SP1; test: EMSA; annealed without KCl; EMSA: 10 mM HEPES-NaOH pH 7.3, 50 mM KCl, 5 mM MgCl2, 0.5 mM DTT, 5% glycerol, 0.5 mg/mL BSA, 1 h, gel at 4 C; BLI: PBS, room temperature; oligos annealed in 10 mM Tris-HCl pH 7.5 +/- 100 mM KCl; conditions: protein: commercial; single strand
SP1 [15] = target: T1, SP1; test: EMSA; annealed in KCl, purified Inter 1; Hill 3.53; EMSA: 10 mM HEPES-NaOH pH 7.3, 50 mM KCl, 5 mM MgCl2, 0.5 mM DTT, 5% glycerol, 0.5 mg/mL BSA, 1 h, gel at 4 C; BLI: PBS, room temperature; oligos annealed in 10 mM Tris-HCl pH 7.5 +/- 100 mM KCl; conditions: protein: commercial

binding [1]: yes | binding [2]: no | binding [3]: no
Molecule: CCc1c(C)c2cc3nc(cc4nc(cc5c(CC)c(C)c(cc1[nH]2)n5C)C(C)=C4CCC(=O)O)C(CCC(=O)O)=C3C

binding [4]: yes | binding [5]: yes | binding [6]: yes
Molecule: C[n+]1ccc(-c2c3nc(c(-c4cc[n+](C)cc4)c4ccc([nH]4)c(-c4cc[n+](C)cc4)c4nc(c(-c5cc[n+](C)cc5)c5ccc2[nH]5)C=C4)C=C3)cc1

binding [8]: yes | binding [9]: yes | binding [10]: yes
Molecule: NCCOc1cc(C(=O)Nc2cc(OCCN)c3ccccc3n2)nc(C(=O)Nc2cc(OCCN)c3ccccc3n2)c1

Further lines, the molecule ahead of its results:

Molecule: Cc1ccc2c(c1)sc(-c1ccc(N(C)C)cc1)[n+]2C
binding [7]: yes

Molecule: GGGGGCCGGGGGCGGGGAGGCGGG (structured_DNA) [Bcl3 WT 24-nt, annealed with KCl (G4)]
Kd (SP1 [11]): 19.1 nM | Kd (SP1 [12]): 2.36 nM

Molecule: GGGUCCGGGCCGGGUGGG (structured_RNA) [G4 RNA (KCl)]
binding result (SP1 [13]): binds

Molecule: GGGUCCGGGCCGGGUGGG (ssRNA) [G4 RNA annealed without KCl]
binding result (SP1 [14]): binds

Molecule: AGAGACCGGGGGCGGGGAGACGAG (structured_DNA) [PCNG4 Inter 1, annealed with KCl]
Kd (SP1 [15]): 24.5 nM

Source: PMC12397910
